US11136313B2, “Compounds, compositions, and methods for modulating CFTR” (Proteostasis Therapeutics, Inc., priority 2015, dated 2021)

target: T1, ΔF508-CFTR (Homo sapiens, UniProt P13569, DEL508-508); assay: hBE equivalent current (Ieq) assay: AUC of equivalent chloride current after forskolin/VX-770 in primary lung epithelial cells homozygous for ΔF508; format: cell-based; conditions: relative to CFTR amplifier (Compound A)+VX-809 (3 uM), compound at 10 uM and Compound A at 3 uM, 24 h treatment
T1 construct: Primary lung epithelial cells homozygous for the Cystic Fibrosis-causing ΔF508 mutation were differentiated for a minimum of 4 weeks; endogenous in cells; host or cells: primary lung epithelial cells (hBE) homozygous for ΔF508, differentiated at an air-liquid interface
Summary of the method: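 Readout is the increase over vehicle in equivalent chloride current AUC from forskolin/VX-770 addition to bumetanide, measured by current clamp at 36 °C after benzamil block of ENaC. Cultures were homozygous ΔF508 primary lung epithelium grown ≥4 weeks at air-liquid interface and exposed basolaterally to compound for 24 h.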

T1 sequence (P13569 with tags, fused parts or gaps DEL508-508): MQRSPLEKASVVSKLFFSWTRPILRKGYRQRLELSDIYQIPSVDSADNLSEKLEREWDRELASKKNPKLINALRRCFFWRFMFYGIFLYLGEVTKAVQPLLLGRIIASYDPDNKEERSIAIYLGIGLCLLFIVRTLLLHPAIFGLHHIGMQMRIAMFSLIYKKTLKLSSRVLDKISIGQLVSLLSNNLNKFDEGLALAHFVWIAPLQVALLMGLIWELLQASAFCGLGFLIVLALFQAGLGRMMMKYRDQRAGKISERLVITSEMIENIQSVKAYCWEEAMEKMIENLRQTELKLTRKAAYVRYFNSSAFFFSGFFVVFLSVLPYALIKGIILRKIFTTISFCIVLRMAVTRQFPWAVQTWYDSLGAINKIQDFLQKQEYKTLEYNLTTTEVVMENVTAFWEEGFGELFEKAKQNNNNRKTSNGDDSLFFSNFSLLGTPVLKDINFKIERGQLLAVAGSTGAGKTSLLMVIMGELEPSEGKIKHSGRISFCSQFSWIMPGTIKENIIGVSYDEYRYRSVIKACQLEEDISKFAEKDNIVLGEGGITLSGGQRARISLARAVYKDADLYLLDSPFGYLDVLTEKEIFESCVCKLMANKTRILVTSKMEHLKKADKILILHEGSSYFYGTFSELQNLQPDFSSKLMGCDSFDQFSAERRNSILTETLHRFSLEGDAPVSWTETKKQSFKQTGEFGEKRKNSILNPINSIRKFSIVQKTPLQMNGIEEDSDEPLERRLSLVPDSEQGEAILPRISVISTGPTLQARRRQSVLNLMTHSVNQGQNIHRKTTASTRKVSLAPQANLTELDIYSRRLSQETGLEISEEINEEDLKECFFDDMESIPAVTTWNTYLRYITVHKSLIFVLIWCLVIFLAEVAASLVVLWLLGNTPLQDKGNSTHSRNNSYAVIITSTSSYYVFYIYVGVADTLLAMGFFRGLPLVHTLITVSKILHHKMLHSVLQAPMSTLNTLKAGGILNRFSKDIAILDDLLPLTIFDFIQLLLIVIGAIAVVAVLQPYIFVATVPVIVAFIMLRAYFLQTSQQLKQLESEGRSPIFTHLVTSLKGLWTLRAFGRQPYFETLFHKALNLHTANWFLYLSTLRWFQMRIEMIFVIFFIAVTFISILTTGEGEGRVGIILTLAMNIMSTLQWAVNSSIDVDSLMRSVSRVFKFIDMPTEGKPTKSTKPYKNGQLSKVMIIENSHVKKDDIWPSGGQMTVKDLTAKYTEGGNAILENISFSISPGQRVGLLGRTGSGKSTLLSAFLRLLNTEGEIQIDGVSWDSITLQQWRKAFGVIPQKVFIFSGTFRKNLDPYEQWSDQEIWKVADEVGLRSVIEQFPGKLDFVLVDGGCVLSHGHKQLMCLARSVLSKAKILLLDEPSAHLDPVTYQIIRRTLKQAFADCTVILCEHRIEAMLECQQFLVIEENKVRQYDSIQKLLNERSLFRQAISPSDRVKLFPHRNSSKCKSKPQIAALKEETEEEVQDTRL

| Compound | Activity |
| --- | --- |
| Cc1c(-c2cc(C(=O)[O-])c3c(O[C@@H](C)c4ccc(OC(F)F)cc4)ccc(C)c3n2)oc2ccccc12.[Na+] [Compound 236] | ++ (activity>50% of CFTR amplifier+VX-809 (3 uM) with compound at 10 uM and Compound A at 3 uM) |
| Cc1c(-c2cc(C(=O)[O-])c3c(O[C@H](C)c4ccc(S(N)(=O)=O)cc4)ccc(C)c3n2)oc2ccccc12.[Na+] [Compound 237, Sodium 8-Methyl-2-(3-methyl-1-benzofuran-2-yl)-5-[(1R)-1-(4-sulfamoylphenyl)ethoxy]quinoline-4-carboxylate] | + (activity<50% of an CFTR amplifier (Compound A)+VX-809 (3 uM) with compound at 10 uM and Compound A at 3 uM) |
| Cc1c(-c2cc(C(=O)[O-])c3c(O[C@@H](C)c4ccc(S(N)(=O)=O)cc4)ccc(C)c3n2)oc2ccccc12.[Na+] [Compound 238, Sodium 8-Methyl-2-(3-methyl-1-benzofuran-2-yl)-5-[(1S)-1-(4-sulfamoylphenyl)ethoxy]quinoline-4-carboxylate] | ++ (activity>50% of CFTR amplifier+VX-809 (3 uM) with compound at 10 uM and Compound A at 3 uM) |
| CNS(=O)(=O)c1ccc([C@@H](C)Oc2ccc(C)c3nc(-c4oc5ccccc5c4C)cc(C(=O)[O-])c23)cc1.[Na+] [Compound 239, Sodium 8-Methyl-2-(3-methyl-l-benzofuran-2-yl)-5-[(1R)-1-[4-(methylsulfamoyl)phenyl]ethoxy]quinoline-4-carboxylate] | ++ (activity>50% of CFTR amplifier+VX-809 (3 uM) with compound at 10 uM and Compound A at 3 uM) |
| CNS(=O)(=O)c1ccc([C@H](C)Oc2ccc(C)c3nc(-c4oc5ccccc5c4C)cc(C(=O)[O-])c23)cc1.[Na+] [Compound 240, Sodium 8-Methyl-2-(3-methyl-1-benzofuran-2-yl)-5-[(1S)-1-[4-(methylsulfamoyl)phenyl]ethoxy]quinoline-4-carboxylate] | ++ (activity>50% of CFTR amplifier+VX-809 (3 uM) with compound at 10 uM and Compound A at 3 uM) |
| Cc1c(-c2cc(C(=O)[O-])c3c(O[C@@H](C)C4CCCCC4)ccc(C)c3n2)oc2ccccc12.[Na+] [Compound 244] | ++ (activity>50% of CFTR amplifier+VX-809 (3 uM) with compound at 10 uM and Compound A at 3 uM) |
| Cc1c(-c2cc(C(=O)[O-])c3c(O[C@H](C)C4CCOCC4)ccc(C)c3n2)oc2ccccc12.[Na+] [Compound 245, Sodium 5-((1R)-1-(tetrahydro-2H-pyran-4-yl)ethoxy)-8-methyl-2-(3-methyl-1-benzofuran-2-yl)quinoline-4-carboxylate] | ++ (activity>50% of CFTR amplifier+VX-809 (3 uM) with compound at 10 uM and Compound A at 3 uM) |
| Cc1c(-c2cc(C(=O)[O-])c3c(O[C@@H](C)C4CCOCC4)ccc(C)c3n2)oc2ccccc12.[Na+] [Compound 246, Sodium 5-((1S)-1-(tetrahydro-2H-pyran-4-yl)ethoxy)-8-methyl-2-(3-methyl-1-benzofuran-2-yl)quinoline-4-carboxylate] | ++ (activity>50% of CFTR amplifier+VX-809 (3 uM) with compound at 10 uM and Compound A at 3 uM) |
| Cc1c(-c2cc(C(=O)[O-])c3c(O[C@H](C)C4CCN(S(C)(=O)=O)CC4)ccc(C)c3n2)oc2ccccc12.[Na+] [Compound 247, Sodium 5-[(1R)-1-(1-Methanesulfonylpiperidin-4-yl)ethoxy]-8-methyl-2-(3-methyl-1-benzofuran-2-yl)quinoline-4-carboxylate] | ++ (activity>50% of CFTR amplifier+VX-809 (3 uM) with compound at 10 uM and Compound A at 3 uM) |
| Cc1c(-c2cc(C(=O)[O-])c3c(O[C@@H](C)C4CCN(S(C)(=O)=O)CC4)ccc(C)c3n2)oc2ccccc12.[Na+] [Compound 248, Sodium 5-[(1S)-1-(1-Methanesulfonylpiperidin-4-yl)ethoxy]-8-methyl-2-(3-methyl-1-benzofuran-2-yl)quinoline-4-carboxylate] | ++ (activity>50% of CFTR amplifier+VX-809 (3 uM) with compound at 10 uM and Compound A at 3 uM) |
| Cc1c(-c2cc(C(=O)[O-])c3c(O[C@@H]4CCc5ccccc5C4)ccc(C)c3n2)oc2ccccc12.[Na+] [Compound 249] | ++ (activity>50% of CFTR amplifier+VX-809 (3 uM) with compound at 10 uM and Compound A at 3 uM) |
| Cc1c(-c2cc(C(=O)[O-])c3c(O[C@H]4CCc5ccccc5C4)ccc(C)c3n2)oc2ccccc12.[Na+] [Compound 253] | ++ (activity>50% of CFTR amplifier+VX-809 (3 uM) with compound at 10 uM and Compound A at 3 uM) |
| Cc1c(-c2cc(C(=O)[O-])c3c(O[C@H](C)c4ccn5nccc5c4)ccc(C)c3n2)oc2ccccc12.[Na+] [Compound 257, Sodium 8-Methyl-2-((1R)-3-methyl-1-benzofuran-2-yl)-5-(1-[pyrazolo[1,5-a]pyridin-5-yl]ethoxy)quinoline-4-carboxylate] | ++ (activity>50% of CFTR amplifier+VX-809 (3 uM) with compound at 10 uM and Compound A at 3 uM) |
| Cc1c(-c2cc(C(=O)[O-])c3c(O[C@@H](C)c4ccn5nccc5c4)ccc(C)c3n2)oc2ccccc12.[Na+] [Compound 258, Sodium 8-Methyl-2-((1S)-3-methyl-1-benzofuran-2-yl)-5-(1-[pyrazolo[1,5-a]pyridin-5-yl]ethoxy)quinoline-4-carboxylate] | ++ (activity>50% of CFTR amplifier+VX-809 (3 uM) with compound at 10 uM and Compound A at 3 uM) |
| Cc1c(-c2cc(C(=O)[O-])c3c(OCc4ccc(S(C)(=O)=O)cc4)ccc(C)c3n2)oc2ccccc12.[Na+] [Compound 263] | ++ (activity>50% of CFTR amplifier+VX-809 (3 uM) with compound at 10 uM and Compound A at 3 uM) |
| Cc1c(-c2cc(C(=O)[O-])c3c(OCc4ccc(S(C)(=O)=O)cc4)ccc(C)c3n2)sc2ccccc12.[Na+] [Compound 264] | ++ (activity>50% of CFTR amplifier+VX-809 (3 uM) with compound at 10 uM and Compound A at 3 uM) |
| Cc1c(-c2cc(C(=O)[O-])c3c(O[C@H](C)c4ccc(S(C)(=O)=O)cc4)ccc(C)c3n2)sc2ccccc12.[Na+] [Compound 265] | ++ (activity>50% of CFTR amplifier+VX-809 (3 uM) with compound at 10 uM and Compound A at 3 uM) |
| Cc1c(-c2cc(C(=O)[O-])c3c(O[C@@H](C)c4ccc(S(C)(=O)=O)cc4)ccc(C)c3n2)sc2ccccc12.[Na+] [Compound 266] | ++ (activity>50% of CFTR amplifier+VX-809 (3 uM) with compound at 10 uM and Compound A at 3 uM) |
| Cc1c(-c2cc(-c3cc(O)[nH]n3)c3c(O[C@H](C)c4ccccc4)ccc(C)c3n2)oc2ccccc12 [Compound 274] | + (activity<50% of an CFTR amplifier (Compound A)+VX-809 (3 uM) with compound at 10 uM and Compound A at 3 uM) |
| Cc1c(-c2cc(CC(=O)O)c3c(OC(C)c4ccccc4)ccc(C)c3n2)oc2ccccc12 (stereo not shown) [Compound 276, 2-[8-Methyl-2-(3-methyl-1-benzofuran-2-yl)-5-(1-phenylethoxy)quinolin-4-yl]acetic Acid] | ++ (activity>50% of CFTR amplifier+VX-809 (3 uM) with compound at 10 uM and Compound A at 3 uM) |
| Cc1c(-c2cc(C(=O)[O-])c3c(OC4CC(C)C4)ccc(C)c3n2)sc2ccccc12.[Na+] (stereo not shown) [Compound 277, Sodium 8-Methyl-2-(3-methyl-1-benzothiophen-2-yl)-5-(3-methylcyclobutoxy)quinoline-4-carboxylate] | ++ (activity>50% of CFTR amplifier+VX-809 (3 uM) with compound at 10 uM and Compound A at 3 uM) |
| Cc1c(-c2cc(C(=O)[O-])c3c(OCc4ccccc4C#N)ccc(C)c3n2)sc2ccccc12.[Na+] [Compound 280] | ++ (activity>50% of CFTR amplifier+VX-809 (3 uM) with compound at 10 uM and Compound A at 3 uM) |
| Cc1c(-c2cc(C(=O)[O-])c3c(O[C@H]4C[C@H](c5ccccc5)C4)ccc(C)c3n2)oc2ccccc12.[Na+] [Compound 281, Sodium 8-Methyl-2-(3-methyl-1-benzofuran-2-yl)-5-[(1r,3r)-3-phenylcyclobutoxy]quinoline-4-carboxylate] | ++ (activity>50% of CFTR amplifier+VX-809 (3 uM) with compound at 10 uM and Compound A at 3 uM) |
| Cc1c(-c2cc(C(=O)[O-])c3c(O[C@H]4C[C@@H](c5ccccc5)C4)ccc(C)c3n2)oc2ccccc12.[Na+] [Compound 282, Sodium 8-Methyl-2-(3-methyl-1-benzofuran-2-yl)-5-[(1s,3s)-3-phenylcyclobutoxy]quinoline-4-carboxylate] | ++ (activity>50% of CFTR amplifier+VX-809 (3 uM) with compound at 10 uM and Compound A at 3 uM) |
| Cc1c(-c2cc(C(=O)[O-])c3c(O[C@H]4C[C@H](c5ccccc5)C4)ccc(C)c3n2)sc2ccccc12.[Na+] [Compound 283, Sodium 8-Methyl-2-(3-methyl-1-benzothiophen-2-yl)-5-[(1r,3r)-3-phenylcyclobutoxy]quinoline-4-carboxylate] | ++ (activity>50% of CFTR amplifier+VX-809 (3 uM) with compound at 10 uM and Compound A at 3 uM) |
| Cc1c(-c2cc(C(=O)[O-])c3c(O[C@H]4C[C@@H](c5ccccc5)C4)ccc(C)c3n2)sc2ccccc12.[Na+] [Compound 284, Sodium 8-Methyl-2-(3-methyl-1-benzothiophen-2-yl)-5-[(1s,3s)-3-phenylcyclobutoxy]quinoline-4-carboxylate] | ++ (activity>50% of CFTR amplifier+VX-809 (3 uM) with compound at 10 uM and Compound A at 3 uM) |
| Cc1c(-c2cc(C(=O)[O-])c3c(O[C@H](C)c4ccc(C5COC5)cc4)ccc(C)c3n2)oc2ccccc12.[Na+] [Compound 285, Sodium 8-Methyl-2-(3-methyl-1-benzofuran-2-yl)-5-[(1R)-1-[4-(oxetan-3-yl)phenyl]ethoxy]quinoline-4-carboxylate] | ++ (activity>50% of CFTR amplifier+VX-809 (3 uM) with compound at 10 uM and Compound A at 3 uM) |
| Cc1c(-c2cc(C(=O)[O-])c3c(O[C@@H](C)c4ccc(C5COC5)cc4)ccc(C)c3n2)oc2ccccc12.[Na+] [Compound 286, Sodium 8-Methyl-2-(3-methyl-1-benzofuran-2-yl)-5-[(1S)-1-[4-(oxetan-3-yl)phenyl]ethoxy]quinoline-4-carboxylate] | ++ (activity>50% of CFTR amplifier+VX-809 (3 uM) with compound at 10 uM and Compound A at 3 uM) |
